{
  "source": "patent US9726659B2",
  "about": "“CMPF as a biomarker for diabetes and associated methods” (The Governing Council of the University of Toronto, priority 2012, dated 2017)",
  "key": {"islets": {"test_system": "islets", "assay": "Insulin and proinsulin in the media of 24 hr treated islets", "assay_type": "cell-based, mouse", "settings": "24 hr treatment", "experimental": "A) Proinsulin in the media of 24 hr treated islets (n=4/group). B) Mitochondrial membrane potential (MMP) following acute addition of vehicle control or 200 μM of CMPF (N=3/group). C) ROS levels in 4- and 24-hour treated mouse islets with representative images (N=10-15 islets/mouse from 4 mice/group). D) Expression of antioxidant genes Cat and (e) Ucp2 (n=4/group). F) ROS accumulation in 24 hr-treated islets treated with 500 μM NAC (n=10 islets/mouse from 4 mice/group). G) GSIS and (h) total insulin content from 24 hr-treated islets co-treated with 500 μM NAC (n=4/group). Western blots showing (i) Ser9 phosphorylation of GSK3β, (j) Ser473 phosphorylation of AKT (n=3/group). K) Immunofluorescent staining showing nuclear translocation of FOXO1 and (l) PDX1 with CMPF and NAC treatment (n=3-6). Quantification of nuclear percentage of (m) FOXO1 and (n) PDX1 based on immunofluorescent staining with CMPF and NAC treatment. […]\nLower total insulin content may be due to beta-cell exhaustion caused by over-stimulation and/or defective insulin production. To determine the mechanism through which CMPF diminishes insulin content, we measured insulin in the media following 24 hr treatment. […] To first determine if CMPF is metabolized by beta-cells, we measured changes in mitochondrial membrane potential (MMP) in mouse islets acutely treated with CMPF. […]"}, "dispersed mouse islets": {"test_system": "dispersed mouse islets", "assay": "Mitochondrial membrane potential (rhodamine 123)", "assay_type": "cell-based", "settings": "200 μM", "experimental": "Dispersed isolated islets were treated with either vehicle control or 200 μM CMPF for 24 hours prior to loading with rhodamine 123 (25 ug/ml, 10 min) in 2.8 mM glucose imaging buffer. 5 mM NaN3 was added to fully depolarize the MMP (Diao et al., 2008).\nLower total insulin content may be due to beta-cell exhaustion caused by over-stimulation and/or defective insulin production. To determine the mechanism through which CMPF diminishes insulin content, we measured insulin in the media following 24 hr treatment. […] Impaired insulin processing has previously been associated with elevated levels of the mitochondrial protein uncoupling protein 2 (UCP2) (Kashemsant and Chan, 2006). Excess substrate for the electron transport chain leads to the formation of ROS, which can induce UCP2 expression. To first determine if CMPF is metabolized by beta-cells, we measured changes in mitochondrial membrane potential (MMP) in mouse islets acutely treated with CMPF. […] This corresponded to a 2-fold increase in ROS in CMPF-treated islets over controls after 4 and 24 hrs of treatment (FIG. 17c). […] The increase in ROS production caused by CMPF-treatment was inhibited by co-treatment with the antioxidant N-Acetyl-Cysteine (NAC) (FIG. 17f). Importantly, co-treatment with NAC rescued insulin secretion and insulin content to near control levels in CMPF-treated islets (FIG. 17g,h). Therefore, oxidative stress caused by CMPF metabolism impaired GSIS and insulin processing, and is reversible through reducing ROS generation.\nGiven that CMPF causes hyperinsulinemia during the fed-state in vivo, and exaggerated secretion of insulin from islets under non-stimulatory conditions in vitro, we rationalized that there must be a defect in glucose-sensing and/or secretion of insulin that could not be solely explained by effects on insulin production. […] To confirm changes in mitochondrial function, 24 hr CMPF treated islets were analyzed by microarray. […] When organized based on biological process, the largest differentially expressed cluster encompassed genes involved in metabolism (38%) (FIG. 17c). […]"}, "mouse islets [1]": {"test_system": "mouse islets", "assay": "Western blotting of treated mouse islets", "assay_type": "cell-based", "experimental": "CMPF-treated and control mouse islets were lysed in RIPA buffer (Cell Signaling, Danvers, Mass., USA) containing protease inhibitor cocktail (Roche, Mississauga, ON, Canada). Lysates were spun at 12,000 rpm and supernatant was loaded onto a 4-15% SDS-PAGE gradient gel (BioRad, Mississauga, ON, Canada) and transferred onto PVDF membrane using a Turbo Blotter (BioRad). The membrane was probed with the corresponding antibodies, and imaged using Kodak Imager 4000pro (Carestream, Rochester, N.Y., USA).\n(§1) To determine the mechanism through which CMPF decreases insulin biosynthesis we examined its effect on these key regulators. Under normal conditions, AKT and GSK3β have reciprocal activities. Active pAKT phosphorylates and inactivates GSK3β, preventing phosphorylation of downstream targets (Humphrey et al., 2010). […] FOXO1 is normally sequestered in the cytosol due to phosphorylation by AKT (Kitamura et al., 2005). […] Altered activity of these transcription factors is further confirmed by decreased mRNA levels of key target genes including Inst, transcription factors Pdx1 and Mafa, proinsulin processing enzymes CpE, Pc1 and Pc2, and the glucose transporter Glut2 (Boucher et al., 2006; Kaneto et al. 2008) (FIG. 18a)."}, "[2]": {"test_system": "dispersed CD1 mouse islet cells", "assay": "Immunofluorescent staining of FOXO1 and PDX1 localization", "assay_type": "cell-based", "settings": "CMPF-treated islets", "experimental": "The cellular localization of FOXO1 and PDX1 were determined in dispersed CD1 mouse islet cells using immunofluorescence. The presence of the organic anion transporters (OATs) were determined in dispersed human islet cells also using immunofluorescence. Staining was performed as previously described (Diao et al., 2008). Images were acquired using a confocal microscope (Quorum Wave FX Spinning Disc; Perkin Elmer, Waltham M L, USA) and Volocity software (Perkin Elmer).\nas §1"}, "mouse islets [3]": {"test_system": "mouse islets", "assay": "Microarray analysis of 24 hr treated islets", "assay_type": "cell-based", "settings": "24 hr treatment", "experimental": "A) Expression of insulin, insulin processing enzymes, insulin transcription factors and glucose-sensing genes in 24-hour treated islets (N=5-6/group). B) MMP following 24-hour incubation with control or 200 μM CMPF, and change in fluorescence (N=4/group). […] Values are mean+/−SEM. Student's t-test (a,c), one-way ANOVA (b). *P<0.05, **P<0.01\nTotal RNA was extracted from 24 hour vehicle or CMPF-treated islets using the Qiagen RNeasy Plus mini kit (Hilden, Germany). Microarray analysis was performed as previously described (Basford et al. 2012) using the Affymetrix Mouse 430 2.0 Gene Chip at the University Health Network microarray center (Toronto, Canada). Significant changes were defined as P<0.05. Microarray data will be available on the NCBI GEO database at the time of publication. Human islet microarray data can be found at GE040709. Reverse transcription from total RNA and quantitative real time PCR (qPCR) analysis was performed as previously described (Basford et al. 2012). Primers were designed using Primer3 software (NCBI). Data were normalized to beta actin mRNA.\nGiven that CMPF causes hyperinsulinemia during the fed-state in vivo, and exaggerated secretion of insulin from islets under non-stimulatory conditions in vitro, we rationalized that there must be a defect in glucose-sensing and/or secretion of insulin that could not be solely explained by effects on insulin production. […] To confirm changes in mitochondrial function, 24 hr CMPF treated islets were analyzed by microarray. […] When organized based on biological process, the largest differentially expressed cluster encompassed genes involved in metabolism (38%) (FIG. 17c). […] Such a switch can decrease the beta-cell's ability to sense and metabolize glucose, limiting their capacity for GSIS thus may explain CMPF's effect on beta-cells (Hue et al., 2009)."}},
  "data": [
    {"smiles": "CCCc1oc(CCC(=O)O)c(C(=O)O)c1C", "note": "[CMPF, 3-carboxy-4-methyl-5-propyl-2-furanpropanoic acid]", "values": [
      {"measurement": "accumulation of total insulin in the media", "setting": "islets", "result": "no difference"},
      {"measurement": "proinsulin in the media", "setting": "islets", "result": "substantially more proinsulin"},
      {"measurement": "MMP hyperpolarization under high glucose", "setting": "dispersed mouse islets; 24 hrs", "result": "significantly reduced MMP hyperpolarization"},
      {"measurement": "MMP hyperpolarization under sub-stimulatory glucose", "setting": "dispersed mouse islets; 24 hrs", "result": "significantly greater hyperpolarization"},
      {"measurement": "mitochondrial membrane potential, acute addition", "setting": "dispersed mouse islets; acute", "result": "transient membrane hyperpolarization"},
      {"measurement": "AKT (Ser473) phosphorylation", "setting": "mouse islets [1]; 24 hr treatment", "result": "significantly impaired"},
      {"measurement": "GSK3β (Ser9) phosphorylation", "setting": "mouse islets [1]; 24 hr treatment", "result": "significantly impaired"},
      {"measurement": "absolute protein levels of PDX1 and FOXO1", "setting": "mouse islets [1]; CMPF-treated islets", "result": "not significantly different"},
      {"measurement": "FOXO1 localization", "setting": "[2]", "result": "translocated to the nucleus"},
      {"measurement": "PDX1 localization", "setting": "[2]", "result": "sequestered outside of the nucleus"},
      {"measurement": "genes related to fat oxidation", "setting": "mouse islets [3]", "result": "significant upregulation"},
      {"measurement": "share of differentially expressed genes in the metabolism cluster", "setting": "mouse islets [3]", "result": 38, "unit": "%"},
      {"measurement": "transcripts significantly differentially expressed", "setting": "mouse islets [3]", "result": 6.2, "unit": "%"}
    ]}
  ]
}
